Our source for the inhibition values is patent US9416115B2, “Fused heterocyclic compounds as ion channel modulators” (Gilead Sciences, Inc., priority 2013, dated 2016).

Format in all cases: cell-based
The target in test [1] is T1, wild-type human cardiac sodium channel, hNav1.5 (Homo sapiens, UniProt Q14524). Description: Late INa screening assay (QPatch whole cell patch clamp, Tefluthrin-induced late current). The note with it: HEK293 hNav1.5, percent block of late INa. As to the method: (§1) The cardiac late sodium current (Late INa) and peak sodium current (Peak INa) assays are performed on an automated electrophysiology platform, QPatch 16X or QPatch HT (Sophion Bioscience, Copenhagen, Denmark) using the whole cell patch clamp technique to measure currents through the cell membrane. The assay uses an HEK293 (human embryonic kidney) cell line heterologously expressing the wild-type human cardiac sodium channel, hNav1.5, purchased from Millipore (Billerica, Mass.). No beta subunits were coexpressed with the Na channel alpha subunit. Cells are maintained with standard tissue culture procedures and stable channel expression is maintained with 400 μg/mL Geneticin in the culture medium. Experiments are carried out at 23-25° C.
(§2) For both the Late INa and Peak INa assays, series resistance compensation is set to 100% and series resistance and whole-cell compensation are performed automatically. Currents are digitized at 25 kHz and low-pass filtered at 5 kHz and stored in the Sophion Bioscience Oracle database (Sophion Bioscience, Copenhagen, Denmark). Analysis is performed using QPatch Assay software and data are compiled in Excel 2010 (Microsoft, Seattle, Wash., U.S.A.).
(§3) Compound stocks are routinely made by the Gilead Sample Bank in vials to 10 mM in dimethyl sulfoxide (DMSO). In some cases, when compounds are not soluble in DMSO, they are made in 100% ethanol. Stocks are sonicated as necessary. The extracellular solution for screening Late INa is composed of: 140 mM NaCl, 4 mM KCl, 1.8 mM CaCl2, 1 mM MgCl2, 10 mM HEPES and 10 mM Dextrose with pH adjusted to 7.35 using NaOH. The intracellular solution contains: 105 mM CsF, 20 mM CsCl, 10NaF, 2 mM EGTA, 10 mM HEPES and 10 mM Dextrose with pH adjusted to 7.35 with CsOH. Compounds are diluted in extracellular solution using a MicroLab Nimbus (Hamilton Robotics, Reno, Nev.) to between 0.3 and 3 μM in glass vials and transferred to glass well plates before robotic addition to the cells. The 0 mM Na extracellular solution (0Na-ECF) used at the end of each experiment for the Late INa and Peak INa assays to measure baseline current contains: 140 Choline-Cl; 4 mM KCl, 1.8 mM CaCl2; 1 mM MgCl2; 10 mM HEPES and 10 mM Dextrose with pH was adjusted to 7.35 with CsOH.
For the Late INa assay, sodium channels are activated every 10 seconds (0.1 Hz) by depolarizing the cell membrane to −20 mV for 250 milliseconds (ms) from a holding potential of −120 mV.
Compounds were tested to determine their activity in blocking the late sodium current. Late INa was generated by adding 10 μM Tefluthrin (pyrethroid) to the extracellular solution. For the purposes of the screening, Late INa is defined as the mean current between […] during the voltage step to −20 mV. After establishing the whole cell recording configuration, Late INa activator is added to each well 4 times over a 15 minute period so that the late component of the Na current reaches a stable value. Compounds were then added (typically at 0.3 or 1 μM), in the presence of the Late Na^+ activator, with 3 additions over the course of 5 minutes. Measurements were made at the end of exposure to the third compound addition and values were normalized to the current level when all Na^+ was removed from the extracellular solution after two additions of 0Na-ECF.
Results are reported as percent block of late INa and results were analyzed by incorporating rundown correction for the Late INa.

The target of test [2] is T1, wild-type human cardiac sodium channel, hNav1.5. Description: Peak INa screening assay (tonic block and use-dependent block). As to the method:
as §1, §2, §3
Compounds were evaluated for their effect Nav1.5 Peak INa. It is contemplated that the compounds of Formula I avoid significant block of peak INa. Since the peak INa in the cells used herein can be very large, introducing artifacts in the recording, the concentration of Na^+ in the bath can be reduced to 40 mM by isosmotic replacement of Na^+ with Choline (see below).
Tonic Block (TB) of Peak INa was measured using a voltage step to −20 mV from a holding potential of −100 mV at a low stimulation frequency of 0.1 Hz. Use-Dependent Block (UDB) of Peak INa was measured during pulse number 50 of a pulse train (−20 mV, 20 ms, 50 pulses, 3 Hz) from a holding potential of −100 mV.
The extracellular solution for screening Peak INa is composed of: 40 mM NaCl, 100 mM Choline-Cl, 4 mM KCl, 1.8 mM CaCl2, 1 mM MgCl2 10 mM HEPES and 10 mM Dextrose with pH adjusted to 7.35 using NaOH. The intracellular solution used for the Peak INa assay is the same as outlined for the Late INa assay (see above).
After establishing the whole cell recording configuration, channels were stimulated to open with low frequency (0.1 Hz) so that the recording can be monitored and the extent to which the recording has stabilized can be assessed.
The test compound is then applied at 1 or 3 μM and was added 2 times at 60 second intervals. After the second compound addition, a 200 second wait period was imposed to allow for equilibration. Voltage protocols for TB and UDB are were performed in the absence and presence of compound and TB and UDB are calculated with respect to the compound free condition. Both TB and UDB were analyzed by incorporating rundown correction for the peak INa.

The next test has as its target hNav1.1 (SCN1A) (Homo sapiens, UniProt P35498). Description: Use-dependent inhibition of the CNS Nav1.1 sodium channel. The note with it: use-dependent block, 25 Hz, pulse 20, read-out: Nav1.1 UDB 25 Hz 10 uM. As to the method:
HEK-293 cells stably expressing wild-type (WT) hNav1.1 (SCN1A, NCBI# AB09354) were obtained from Millipore (Cat. # CYL3009) were used to record INa. Cells are maintained with standard tissue culture procedures and stable channel expression is maintained with 400 ug/mL G418 in the culture medium. Unless otherwise noted, all reagents are purchased from Sigma-Aldrich (St Louis, Mo., U.S.A.).
Assays measuring Use-Dependent Block (UDB) of Nav1.2 are performed on an automated electrophysiology platform, QPatch 16X or QPatch HT (Sophion Bioscience, Copenhagen, Denmark), using the whole cell patch clamp technique to measure currents through the cell membrane. Series resistance compensation is set to 100% and series resistance and whole-cell compensation are performed automatically. Currents stored in the Sophion Bioscience Oracle database (Sophion Bioscience, Copenhagen, Denmark). Analysis is performed using QPatch Assay software and data are compiled in Excel 2010 (Microsoft, Seattle, Wash., U.S.A.).
The internal (pipette) solution consists of (in mM) 105 CsF, 10 NaF, 20 CsCl, 2 EGTA, 10 HEPES, 10 Dextrose with a pH of 7.35 and osmolarity of 300 mOsmol/kg. The external (bath) solution contains in (mM): 145 NaCl, 4 KCl, 1.8 CaCl2, 1 MgCl2, 10 dextrose, 10 HEPES, with a pH of 7.35 and osmolarity of 310 mOsmol/kg. Experiments are carried out at 23-25° C.
Compound stocks are routinely made by the Gilead Sample Bank in vials to 10 mM in dimethyl sulfoxide (DMSO). In some cases, when compounds are not soluble in DMSO, they are made in 100% ethanol. Stocks are sonicated as necessary. […]
Cells are allowed to stabilize for 10 min after establishment of the whole-cell configuration before current is measured. The test compound is applied 2 times at 60 second intervals. After the second compound addition, a 200 second wait period was imposed to allow for equilibration. Leak currents are subtracted by using an online P/4 procedure and all currents are low-pass Bessel filtered at 5 kHz and digitized at […].
Use-dependent block of Nav1.2 peak current is measured during pulse number 20 of a voltage pulse train (0 mV, 20 ms, 20 pulses, 25 Hz) from a holding potential of −120 mV. Currents are normalized to the peak current recorded in response to the first pulse in each frequency train. The voltage protocol for UDB was performed in the absence and presence of compound and percentage inhibition was calculated with respect to the compound free condition. Results are presented as mean percentage inhibition and data analysis is performed using QPatch Assay Software 4.0, and Excel 2002 (Microsoft, Seattle, Wash., U.S.A.).

Setting [3] is: tonic block of Peak INa, 0.1 Hz, holding -100 mV, read-out: Peak TB 3 uM.
The mark [4] stands for this setting: use-dependent block of Peak INa, 3 Hz, pulse 50, read-out: Peak UDB 3 Hz 3 uM.

Where two headings read alike, the source gives them in different places. Bounds are passed on as bounds.

T1 sequence (Q14524 whole entry): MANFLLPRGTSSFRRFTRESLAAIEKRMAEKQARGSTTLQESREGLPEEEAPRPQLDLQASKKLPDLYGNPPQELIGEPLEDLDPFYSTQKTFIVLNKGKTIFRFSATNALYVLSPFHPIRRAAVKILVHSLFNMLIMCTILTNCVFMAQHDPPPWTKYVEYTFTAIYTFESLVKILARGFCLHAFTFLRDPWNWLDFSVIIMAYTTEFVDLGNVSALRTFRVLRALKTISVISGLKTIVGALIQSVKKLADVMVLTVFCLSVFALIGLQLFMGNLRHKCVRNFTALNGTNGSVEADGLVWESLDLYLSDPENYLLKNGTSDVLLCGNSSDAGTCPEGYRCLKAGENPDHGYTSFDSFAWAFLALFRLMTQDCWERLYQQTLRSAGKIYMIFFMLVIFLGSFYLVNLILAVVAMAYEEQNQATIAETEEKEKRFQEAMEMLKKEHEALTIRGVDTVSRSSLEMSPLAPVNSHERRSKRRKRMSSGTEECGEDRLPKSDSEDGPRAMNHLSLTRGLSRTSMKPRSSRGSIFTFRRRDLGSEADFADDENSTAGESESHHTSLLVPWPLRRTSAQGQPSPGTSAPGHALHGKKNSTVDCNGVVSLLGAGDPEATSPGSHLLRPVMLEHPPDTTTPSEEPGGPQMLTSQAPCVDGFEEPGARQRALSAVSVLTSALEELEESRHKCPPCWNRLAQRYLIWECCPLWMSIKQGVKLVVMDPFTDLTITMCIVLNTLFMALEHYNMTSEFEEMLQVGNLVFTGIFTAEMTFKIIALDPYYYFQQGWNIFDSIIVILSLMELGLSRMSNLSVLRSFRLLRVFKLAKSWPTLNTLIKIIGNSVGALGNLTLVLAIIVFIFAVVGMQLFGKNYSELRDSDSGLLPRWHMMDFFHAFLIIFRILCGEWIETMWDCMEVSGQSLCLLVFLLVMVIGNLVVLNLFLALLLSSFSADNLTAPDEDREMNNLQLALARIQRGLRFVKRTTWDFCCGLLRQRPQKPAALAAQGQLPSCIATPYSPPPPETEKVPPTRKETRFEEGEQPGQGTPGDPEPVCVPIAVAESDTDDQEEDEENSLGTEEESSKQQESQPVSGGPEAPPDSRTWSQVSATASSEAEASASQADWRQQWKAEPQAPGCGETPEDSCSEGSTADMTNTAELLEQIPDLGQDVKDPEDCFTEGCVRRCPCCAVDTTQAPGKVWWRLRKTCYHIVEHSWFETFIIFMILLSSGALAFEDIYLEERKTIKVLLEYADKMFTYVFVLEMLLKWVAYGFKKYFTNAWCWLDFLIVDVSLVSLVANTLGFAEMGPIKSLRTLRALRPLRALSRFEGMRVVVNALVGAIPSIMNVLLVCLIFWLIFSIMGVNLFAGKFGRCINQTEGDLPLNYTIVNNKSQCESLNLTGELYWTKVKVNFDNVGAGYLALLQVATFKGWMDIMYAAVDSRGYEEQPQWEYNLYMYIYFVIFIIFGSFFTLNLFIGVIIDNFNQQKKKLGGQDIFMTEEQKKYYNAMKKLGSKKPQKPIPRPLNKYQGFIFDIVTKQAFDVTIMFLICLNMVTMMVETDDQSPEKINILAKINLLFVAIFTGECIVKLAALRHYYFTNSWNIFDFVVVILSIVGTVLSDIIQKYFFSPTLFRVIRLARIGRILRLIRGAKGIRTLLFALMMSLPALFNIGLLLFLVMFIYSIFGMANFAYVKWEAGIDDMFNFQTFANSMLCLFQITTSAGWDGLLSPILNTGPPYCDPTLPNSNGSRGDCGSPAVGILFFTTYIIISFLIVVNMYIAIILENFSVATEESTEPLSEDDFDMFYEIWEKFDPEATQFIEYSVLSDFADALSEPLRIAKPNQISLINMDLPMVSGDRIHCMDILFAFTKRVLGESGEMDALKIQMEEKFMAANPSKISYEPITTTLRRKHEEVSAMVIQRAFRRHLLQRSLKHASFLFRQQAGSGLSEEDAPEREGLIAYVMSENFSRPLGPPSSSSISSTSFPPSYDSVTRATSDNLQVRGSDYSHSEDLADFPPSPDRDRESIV

On to `CN1CC(COc2noc3ccc(-c4ccc(OC(F)(F)F)cc4)cc23)CC1=O` (stereo not drawn) [Example 56, 1-methyl-4-(((5-(4-(trifluoromethoxy)phenyl)benzo[d]isoxazol-3-yl)oxy)methyl)pyrrolidin-2-one], for which, in test [1], the inhibition at 0.3 µM stood at 16.1% and the inhibition at 1 µM was found to be 57.8%. The inhibition at 3 µM in test [2] (setting [3]) turned out to be 30.4%. Moreover, the inhibition at 3 µM in test [2] (setting [4]) was determined as 31.4%. In addition, on hNav1.1 (SCN1A), the inhibition at 10 µM is 83.6%.

`Cc1cc(-c2ccc(OC(F)(F)F)cc2)cc2c(OCCN3CCCC3=O)noc12` [Example 88, 1-(2-((7-methyl-5-(4-(trifluoromethoxy)phenyl)benzo[d]isoxazol-3-yl)oxy)ethyl)pyrrolidin-2-one] showed an inhibition at 1 µM in test [1] of 47.7%. Further, the inhibition at 3 µM turned out to be 20.8% in test [2] (setting [3]) and 19.5% in test [2] (setting [4]). In addition, the inhibition at 10 µM on hNav1.1 (SCN1A) is 66.7%.

Regarding `Cc1cccc(CNc2noc3ccc(-c4ccc(OC(F)(F)F)cc4)cc23)n1` [Example 129, N-((6-methylpyridin-2-yl)methyl)-5-(4-(trifluoromethoxy)phenyl)benzo[d]isoxazol-3-amine], in test [1], the inhibition at 0.3 µM is 34.3% and the inhibition at 1 µM was 67.5%. Also, on hNav1.1 (SCN1A), the inhibition at 10 µM was determined as 33.5%.

As for `FC(F)(F)Oc1ccc(-c2ccc3onc(Oc4ccccn4)c3c2)cc1` [Example 125, 3-(pyridin-2-yloxy)-5-(4-(trifluoromethoxy)phenyl)benzo[d]isoxazole], the inhibition at 1 µM in test [1] was 41.8%. Further, the inhibition at 10 µM at hNav1.1 (SCN1A) was less than 5%.

In test [1], `FC(F)(F)Oc1ccc(-c2ccc3onc(OCCn4ccnc4)c3c2)cc1` [Example 55, 3-(2-(1H-imidazol-1-yl)ethoxy)-5-(4-(trifluoromethoxy)phenyl)benzo[d]isoxazole] yielded an inhibition at 0.3 µM of 45.4% and an inhibition at 1 µM of 59.9%. In addition, the inhibition at 3 µM in test [2] (setting [3]) was 15.1%. Further, the inhibition at 3 µM in test [2] (setting [4]) amounted to 5.13%. For the same molecule, the inhibition at 10 µM on hNav1.1 (SCN1A) worked out at 79.8%.

Take `Cc1nccn1CCOc1noc2ccc(-c3ccc(OC(F)(F)F)cc3)cc12` [Example 57, 3-(2-(2-methyl-1H-imidazol-1-yl)ethoxy)-5-(4-(trifluoromethoxy)phenyl)benzo[d]isoxazole]: in test [1], the inhibition at 0.3 µM is 17% and the inhibition at 1 µM stood at 57.3%. Besides, the inhibition at 3 µM in test [2] (setting [3]) came to 22.1%. The inhibition at 3 µM in test [2] (setting [4]) came out at 37.1%. On hNav1.1 (SCN1A), the inhibition at 10 µM worked out at 82.5%.

Take `FC(F)(F)Oc1ccc(-c2ccc3onc(OC[C@@H]4CCCN4)c3c2)cc1` [Example 108, (S)-3-(pyrrolidin-2-ylmethoxy)-5-(4-(trifluoromethoxy)phenyl)benzo[d]isoxazole]: the inhibition at 0.3 µM in test [1] stood at 30.1%. For the same molecule, the inhibition at 1 µM in test [1] was 83.5%. Also, the inhibition at 3 µM in test [2] (setting [3]) was found to be 62.6%; in test [2] (setting [4]) it was 69.3%. Also, the inhibition at 10 µM at hNav1.1 (SCN1A) stood at 89.2%.

On to `O=C1CC(COc2noc3ccc(-c4ccc(OC(F)(F)F)cc4)cc23)CN1` (stereo not drawn) [Example 46, 4-(((5-(4-(trifluoromethoxy)phenyl)benzo[d]isoxazol-3-yl)oxy)methyl)pyrrolidin-2-one], for which the inhibition at 1 µM in test [1] was determined as 36.8%. The inhibition at 3 µM in test [2] (setting [3]) was determined as 23.7%; in test [2] (setting [4]) it was 13.9%. Also, at hNav1.1 (SCN1A), the inhibition at 10 µM amounted to 78.4%.
